Legend:
[1] = system: P388; assay: Chemosensitivity of P388 leukemia, increase in life span; format: in vivo, mice; details: P388, agent i.v., highest non-toxic dose
Procedure: (§1) Cross-resistance was measured in murine leukemia cell lines.
(§2) ILS=100×[(median day of death (MDD) of treated mice)−(MDD control mice)]÷(MDD control mice)
(§3) Table III tabulates the results from this study.

[2] = system: P388/CPT; assay: Chemosensitivity of camptothecin-resistant i.p. P388/CPT leukemia, increase in life span; format: in vivo, mice; details: for %ILS: P388/CPT, highest non-toxic dose
Procedure: as §1, §2, §3

[3] = system: Glasgow osteosarcoma (GOS); assay: CPT-11 i.v. with oxaliplatin i.v., GOS sc; format: in vivo, mice
Procedure: (§4) The effectiveness of irinotecan combination chemotherapy methods were tested in a dose response study in a murine tumor model. Three arms were evaluated for tolerance and efficacy. Tolerance was measured by mortality, body weight loss at nadir, host recovery time, and combination toxicity index. Efficacy end points for solid tumor models were tumor growth delay (T/C), log10 cell kill (LCK, defined above), tumor regressions (i.e., complete remission (CR), or partial remission (PR)). For non-solid tumors, such as leukemia, efficacy was measured as the increase in life span (ILS).

[4] = system: Glasgow osteosarcoma (GOS); assay: CPT-11 p.o. with oxaliplatin i.v., GOS sc; format: in vivo, mice; details: days 4-8
Procedure: as §4

[5] = system: Colon Adenocarcinoma C51; assay: CPT-11, cisplatin and combination, three-arm study in mice bearing colon adenocarcinoma C51; details: for LCK / HNTD Dose: C51 sc; for T/C: tumor growth delay
Procedure: This efficacy may be quantified, for example, by the log10 cell kill, which is determined by the following formula: […]
An agent is considered to be active if log10 cell kill is greater than or equal to 0.7. An agent is considered to be very active if the log10 cell kill is greater than 2.8.
In the first arm, four dose levels of CPT-11 were given orally on days four through seven, twice daily. […] This third arm illustrated an example of semi-simultaneous administration.
The LD10 for the single agent was obtained by plotting the toxicity of that agent and the dosage in mg/kg as a log probit graph. Subsequently, the CTI LD10 was obtained by plotting as a log probit graph the observed lethality and the corresponding CTI calculated as the sum of the fraction of the LD10 of each single agent.

[6] = Tolerance and maximum tolerated dose of oral vs i.v. irinotecan in tumor bearing mice; format: in vivo; details: all five tumor models, three mice strains
Procedure: as §4

[7] = Cisplatin i.v. 1.9 mg/kg/adm, days 4, 7
[8] = Cisplatin i.v. 3.1 mg/kg/adm, days 4, 7
[9] = CPT-11 p.o. 31.5 mg/kg/adm, days 4-7 twice/day
[10] = CPT-11 p.o. 50.8 mg/kg/adm, days 4-7 twice/day

With `O=C1[O][Pt]2([NH][C@@H]3CCCC[C@H]3[NH]2)[O]C1=O` [Oxaliplatin, oxaliplatin] the “%ILS” value [1] was 0%, the “%ILS” value ([2]; agent i.v.) was 86% and the “Comment (sensitivity of P388/CPT)” value ([2]; agent i.v.) was “sensitive”. The LCK ([3]; oxaliplatin i.v. alone at HNTD, days 3, 5, 7) was 2.3, the “HNTD Dose” value ([3]; oxaliplatin i.v. alone, days 3, 5, 7) was 10.2 mg/kg and the LCK ([4]; oxaliplatin i.v. alone at HNTD) was 2.0. For the same compound, the “HNTD Dose” value ([4]; oxaliplatin i.v. alone) was 16.0 mg/kg.
With `CC[C@@]1(O)C(=O)OCc2c1cc1n(c2=O)Cc2cc3ccccc3nc2-1` [CPT, camptothecin] the “Comment (sensitivity of P388/CPT)” value ([2]; agent s.c.) was “resistant”.
In the case of `N.N.[Cl][Pt][Cl]` [Cisplatin, cis-diaminedichloroplatinum], the LCK ([5]; cisplatin i.v. alone at HNTD, days 4, 7) is reported as 3.3, the “HNTD Dose” value ([5]; cisplatin i.v. alone, days 4, 7) is reported as 6.2 mg/kg and the Log10 cell kill [5, 7] is reported as 1.3. The “Time for Median tumor to reach 1000 mg” value [5, 7] was 30.8 days, the “T/C” value [5, 7] was 11.3 days and the Log10 cell kill [5, 8] was 3.3. For the same compound, the “Time for Median tumor to reach 1000 mg” value [5, 8] was 48.1 days, the “T/C” value [5, 8] was 28.6 days and the “%ILS” value [1] was 73%. For the same compound, the “%ILS” value ([2]; agent i.v.) was 153% and the “Comment (sensitivity of P388/CPT)” value ([2]; agent i.v.) was “sensitive”.
In the case of `CCc1c2c(nc3ccc(OC(=O)N4CCC(N5CCCCC5)CC4)cc13)-c1cc3c(c(=O)n1C2)COC(=O)[C@]3(O)CC` [CPT-11, irinotecan], the LCK ([5]; CPT-11 p.o. alone at HNTD, days 4-7, twice daily) is reported as 1.1, the “HNTD Dose” value ([5]; CPT-11 p.o. alone, days 4-7, twice daily) is reported as 406 mg/kg and the Comments [5, 9] is reported as “Marginal Activity”. For the same compound, the Log10 cell kill [5, 9] was 0.7, the “Time for Median tumor to reach 1000 mg” value [5, 9] was 25.5 days and the “T/C” value [5, 9] was 6.0 days. The “Time for Median tumor to reach 1000 mg” value [5, 10] was 29.4 days, the “T/C” value [5, 10] was 9.9 days and the “efficacy in tumor bearing mice, oral vs i.v. administration” value [6] was “similar”. For the same compound, the “Comment (sensitivity of P388/CPT)” value ([2]; agent i.v.) was “resistant” and the “HNTD Dose” value ([3]; CPT-11 i.v. alone, days 3, 5, 7 twice daily) was 349.8 mg/kg.
